# According to US11767310B2, “Nicotinamide RIPK1 inhibitors” (AbbVie Inc., priority 2021, dated 2023):
# Where two headings read alike, the source gives them in different places.
# How the values were obtained:
# Assay in all cases: Kinase binding screen
# Conditions in all cases: read-out: Percent Control at 100 nM Compound Concentration
# SLK = SLK (Homo sapiens (Human), UniProt Q9H2G2)
# NEK9 = NEK9 (Homo sapiens (Human), UniProt Q8TD19)
# CIT = CIT (Homo sapiens (Human), UniProt O14578)
# PRKCH = PRKCH (Homo sapiens (Human), UniProt P24723)
# NIM1 = NIM1 (Homo sapiens (Human), UniProt Q8IY84)
# Chain of NIM1 (Q8IY84 whole entry): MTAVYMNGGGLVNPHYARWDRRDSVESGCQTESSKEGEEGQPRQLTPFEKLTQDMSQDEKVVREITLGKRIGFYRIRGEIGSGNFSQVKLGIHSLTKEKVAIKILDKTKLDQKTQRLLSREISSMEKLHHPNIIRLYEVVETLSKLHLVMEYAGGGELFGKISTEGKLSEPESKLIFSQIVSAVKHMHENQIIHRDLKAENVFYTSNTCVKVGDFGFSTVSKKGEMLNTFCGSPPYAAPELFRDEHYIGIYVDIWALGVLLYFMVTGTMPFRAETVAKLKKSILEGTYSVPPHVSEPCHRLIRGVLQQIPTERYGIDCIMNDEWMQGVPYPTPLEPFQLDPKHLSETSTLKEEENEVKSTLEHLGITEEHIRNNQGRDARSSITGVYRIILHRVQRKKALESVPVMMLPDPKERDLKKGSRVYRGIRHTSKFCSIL
# WNK3 = WNK3 (Homo sapiens (Human), UniProt Q9BYP7)
# PDPK1 = PDPK1 (Homo sapiens (Human), UniProt O15530)
# MAPKAPK5 = MAPKAPK5 (Homo sapiens (Human), UniProt Q8IW41)
# WNK2 = WNK2 (Homo sapiens (Human), UniProt Q9Y3S1)
# [1] = target: RSK4(Kin.Dom.2-C-terminal) (Homo sapiens (Human), UniProt Q9UK32)
# Chain of RSK4(Kin.Dom.2-C-terminal) (Q9UK32 426-683): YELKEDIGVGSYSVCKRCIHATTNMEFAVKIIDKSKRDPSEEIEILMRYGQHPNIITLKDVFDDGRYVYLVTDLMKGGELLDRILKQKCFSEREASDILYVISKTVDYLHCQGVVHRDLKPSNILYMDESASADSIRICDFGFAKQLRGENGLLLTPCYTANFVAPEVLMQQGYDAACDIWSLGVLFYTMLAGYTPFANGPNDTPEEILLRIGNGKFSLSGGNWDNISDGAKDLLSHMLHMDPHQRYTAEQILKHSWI
# HPK1 = HPK1 (Homo sapiens (Human), UniProt Q92918)
# QSK = QSK (Homo sapiens (Human), UniProt Q9Y2K2)
# ZAK = ZAK (Homo sapiens (Human), UniProt Q9NYL2)
# MST1R = MST1R (Homo sapiens (Human), UniProt Q04912)
# ITK = ITK (Homo sapiens (Human), UniProt Q08881)
# Chain of ITK (Q08881 whole entry): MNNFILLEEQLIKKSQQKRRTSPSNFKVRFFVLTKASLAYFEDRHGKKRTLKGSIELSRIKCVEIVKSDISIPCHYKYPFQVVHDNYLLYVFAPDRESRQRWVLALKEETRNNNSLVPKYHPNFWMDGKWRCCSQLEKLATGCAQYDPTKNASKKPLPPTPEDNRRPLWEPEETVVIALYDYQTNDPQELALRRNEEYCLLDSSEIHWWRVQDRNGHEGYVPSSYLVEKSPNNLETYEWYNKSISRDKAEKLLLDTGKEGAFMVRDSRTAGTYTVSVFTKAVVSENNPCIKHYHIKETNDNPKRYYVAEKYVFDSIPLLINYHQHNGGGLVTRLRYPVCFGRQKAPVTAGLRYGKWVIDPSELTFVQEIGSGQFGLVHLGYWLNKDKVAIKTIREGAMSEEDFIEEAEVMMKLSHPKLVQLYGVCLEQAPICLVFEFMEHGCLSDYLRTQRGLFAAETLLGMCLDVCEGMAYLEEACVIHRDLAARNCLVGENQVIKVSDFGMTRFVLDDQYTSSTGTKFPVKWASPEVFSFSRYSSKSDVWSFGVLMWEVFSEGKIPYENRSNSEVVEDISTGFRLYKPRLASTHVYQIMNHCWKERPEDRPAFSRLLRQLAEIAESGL
# PIKFYVE = PIKFYVE (Homo sapiens (Human), UniProt Q9Y2I7)
# YES = YES (Homo sapiens (Human), UniProt P07947)
# AKT3 = AKT3 (Homo sapiens (Human), UniProt Q9Y243)
# EPHA6 = EPHA6 (Homo sapiens (Human), UniProt Q9UF33)
# Chain of EPHA6 (Q9UF33 23-1036): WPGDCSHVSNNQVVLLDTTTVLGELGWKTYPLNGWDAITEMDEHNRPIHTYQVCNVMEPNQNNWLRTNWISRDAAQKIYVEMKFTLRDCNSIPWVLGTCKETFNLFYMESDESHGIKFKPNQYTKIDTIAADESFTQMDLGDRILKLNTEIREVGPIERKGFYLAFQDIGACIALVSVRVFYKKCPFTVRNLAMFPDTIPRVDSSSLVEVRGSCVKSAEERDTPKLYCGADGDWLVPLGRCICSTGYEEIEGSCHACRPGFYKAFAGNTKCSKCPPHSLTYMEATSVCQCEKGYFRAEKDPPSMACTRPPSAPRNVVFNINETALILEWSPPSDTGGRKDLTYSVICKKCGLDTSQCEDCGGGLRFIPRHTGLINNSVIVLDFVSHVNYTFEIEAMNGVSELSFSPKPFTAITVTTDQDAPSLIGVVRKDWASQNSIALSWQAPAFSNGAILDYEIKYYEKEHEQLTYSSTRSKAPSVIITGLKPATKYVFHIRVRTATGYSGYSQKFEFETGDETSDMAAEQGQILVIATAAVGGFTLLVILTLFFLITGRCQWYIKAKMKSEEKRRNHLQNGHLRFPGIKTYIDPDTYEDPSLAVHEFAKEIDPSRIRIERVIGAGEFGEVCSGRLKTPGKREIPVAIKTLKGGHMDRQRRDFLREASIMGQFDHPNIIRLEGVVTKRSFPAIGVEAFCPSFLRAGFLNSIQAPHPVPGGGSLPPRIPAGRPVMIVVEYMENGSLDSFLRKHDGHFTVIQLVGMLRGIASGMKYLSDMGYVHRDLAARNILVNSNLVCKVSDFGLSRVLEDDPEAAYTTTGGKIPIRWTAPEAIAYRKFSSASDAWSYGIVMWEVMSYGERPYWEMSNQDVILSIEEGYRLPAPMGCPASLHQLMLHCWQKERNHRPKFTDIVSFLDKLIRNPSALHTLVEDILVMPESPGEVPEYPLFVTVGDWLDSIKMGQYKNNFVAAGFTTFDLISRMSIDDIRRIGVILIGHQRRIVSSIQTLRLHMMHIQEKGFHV
# ALK(L1196M) = ALK(L1196M) (Homo sapiens (Human), UniProt Q9UM73, L1196M)
# PLK3 = PLK3 (Homo sapiens (Human), UniProt Q9H4B4)
# MKNK2 = MKNK2 (Homo sapiens (Human), UniProt Q9HBH9)
# Chain of MKNK2 (Q9HBH9 whole entry): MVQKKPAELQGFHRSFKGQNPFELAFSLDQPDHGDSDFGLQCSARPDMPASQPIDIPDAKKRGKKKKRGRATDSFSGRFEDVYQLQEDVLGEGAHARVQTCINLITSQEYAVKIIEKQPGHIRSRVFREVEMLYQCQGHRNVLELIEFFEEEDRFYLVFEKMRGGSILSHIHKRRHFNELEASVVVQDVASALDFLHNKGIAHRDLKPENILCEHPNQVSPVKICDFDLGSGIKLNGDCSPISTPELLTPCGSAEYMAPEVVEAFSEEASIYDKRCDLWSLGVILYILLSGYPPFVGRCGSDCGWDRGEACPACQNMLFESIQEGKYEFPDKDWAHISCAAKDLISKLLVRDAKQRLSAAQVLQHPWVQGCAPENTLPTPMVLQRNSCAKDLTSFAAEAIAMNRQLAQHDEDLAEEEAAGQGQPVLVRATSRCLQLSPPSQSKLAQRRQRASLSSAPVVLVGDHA
# PAK2 = PAK2 (Homo sapiens (Human), UniProt Q13177)
# CDK8 = CDK8 (Homo sapiens (Human), UniProt P49336)
# RET(M918T) = RET(M918T) (Homo sapiens (Human), UniProt P07949, M918T)
# EIF2AK1 = EIF2AK1 (Homo sapiens (Human), UniProt Q9BQI3)
# [2] = target: EGFR(L747-E749del, A750P) (Homo sapiens (Human), UniProt P00533, A750P/DEL747-749)
# CSNK1G1 = CSNK1G1 (Homo sapiens (Human), UniProt Q9HCP0)
# ALK(C1156Y) = ALK(C1156Y) (Homo sapiens (Human), UniProt Q9UM73, C1156Y)
# Chain of CIT (O14578 whole entry): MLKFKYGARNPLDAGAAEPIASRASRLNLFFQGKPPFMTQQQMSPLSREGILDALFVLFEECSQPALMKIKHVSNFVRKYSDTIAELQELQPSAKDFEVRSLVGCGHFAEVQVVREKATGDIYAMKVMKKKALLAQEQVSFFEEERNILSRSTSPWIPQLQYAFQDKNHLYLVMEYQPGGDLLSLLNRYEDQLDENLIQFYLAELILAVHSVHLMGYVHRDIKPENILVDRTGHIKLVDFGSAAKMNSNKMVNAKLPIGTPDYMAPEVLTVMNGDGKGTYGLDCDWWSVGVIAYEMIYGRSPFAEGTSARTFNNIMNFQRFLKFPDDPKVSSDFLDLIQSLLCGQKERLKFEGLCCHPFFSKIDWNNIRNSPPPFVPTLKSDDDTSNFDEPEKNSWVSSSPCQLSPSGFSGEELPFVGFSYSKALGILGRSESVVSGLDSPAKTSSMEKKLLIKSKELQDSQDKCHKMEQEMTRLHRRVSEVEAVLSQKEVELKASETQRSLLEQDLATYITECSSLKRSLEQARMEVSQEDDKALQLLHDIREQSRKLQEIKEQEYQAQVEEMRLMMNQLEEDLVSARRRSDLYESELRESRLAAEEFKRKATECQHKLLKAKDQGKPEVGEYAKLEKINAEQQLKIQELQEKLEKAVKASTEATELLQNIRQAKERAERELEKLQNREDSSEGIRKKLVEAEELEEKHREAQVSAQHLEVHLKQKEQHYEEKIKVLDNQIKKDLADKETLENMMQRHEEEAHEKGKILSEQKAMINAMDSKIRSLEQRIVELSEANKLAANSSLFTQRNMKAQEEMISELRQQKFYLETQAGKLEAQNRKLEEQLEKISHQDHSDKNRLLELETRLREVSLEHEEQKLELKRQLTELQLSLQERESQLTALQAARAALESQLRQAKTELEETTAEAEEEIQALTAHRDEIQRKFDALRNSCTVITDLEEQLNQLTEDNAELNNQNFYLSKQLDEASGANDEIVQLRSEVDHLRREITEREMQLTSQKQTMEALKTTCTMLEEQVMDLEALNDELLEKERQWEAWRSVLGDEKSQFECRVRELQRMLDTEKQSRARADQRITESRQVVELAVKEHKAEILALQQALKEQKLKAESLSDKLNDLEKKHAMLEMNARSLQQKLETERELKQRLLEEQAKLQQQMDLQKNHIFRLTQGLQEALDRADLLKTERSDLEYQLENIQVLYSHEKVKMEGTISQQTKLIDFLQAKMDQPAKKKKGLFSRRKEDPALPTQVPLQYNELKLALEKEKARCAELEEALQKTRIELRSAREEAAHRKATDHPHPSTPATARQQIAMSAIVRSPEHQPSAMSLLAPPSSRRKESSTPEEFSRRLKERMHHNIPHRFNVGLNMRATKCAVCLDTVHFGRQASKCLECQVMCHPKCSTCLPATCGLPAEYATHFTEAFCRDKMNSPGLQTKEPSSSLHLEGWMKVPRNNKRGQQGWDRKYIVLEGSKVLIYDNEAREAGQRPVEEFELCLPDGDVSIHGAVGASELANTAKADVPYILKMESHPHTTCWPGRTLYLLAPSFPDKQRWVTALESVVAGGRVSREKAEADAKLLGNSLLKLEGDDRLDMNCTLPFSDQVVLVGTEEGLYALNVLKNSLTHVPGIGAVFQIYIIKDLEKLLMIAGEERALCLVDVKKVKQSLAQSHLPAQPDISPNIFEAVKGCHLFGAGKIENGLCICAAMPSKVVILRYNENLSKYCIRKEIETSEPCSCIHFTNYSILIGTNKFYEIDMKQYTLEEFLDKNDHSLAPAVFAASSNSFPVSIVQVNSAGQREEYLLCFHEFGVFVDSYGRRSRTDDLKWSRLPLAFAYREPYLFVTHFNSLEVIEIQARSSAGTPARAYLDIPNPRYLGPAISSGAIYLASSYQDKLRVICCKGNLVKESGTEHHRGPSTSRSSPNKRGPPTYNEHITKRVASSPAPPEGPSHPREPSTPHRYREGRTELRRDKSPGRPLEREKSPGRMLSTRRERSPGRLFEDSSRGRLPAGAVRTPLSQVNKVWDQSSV
structure (smiles),measurement,setting,value
"CN(C[C@@H](O)Cc1ccccc1)C(=O)c1cncc(C#Cc2cnn(C(F)F)c2)c1 [Example 2, (S)-5-((1-(difluoromethyl)-1H-pyrazol-4-yl)ethynyl)-N-(2-hydroxy-3-phenylpropyl)-N-methylnicotinamide]",remaining activity at 0.1 µM,SLK; SLK,99%
same,remaining activity at 0.1 µM,NEK9; NEK9,100%
same,remaining activity at 0.1 µM,CIT; CIT,98%
same,remaining activity at 0.1 µM,PRKCH; PRKCH,100%
same,remaining activity at 0.1 µM,NIM1; NIM1,89%
same,remaining activity at 0.1 µM,WNK3; WNK3,100%
same,remaining activity at 0.1 µM,PDPK1; PDPK1,99%
same,remaining activity at 0.1 µM,MAPKAPK5; MAPKAPK5,94%
same,remaining activity at 0.1 µM,WNK2; WNK2,100%
same,remaining activity at 0.1 µM,[1]; RSK4(Kin.Dom.2-C-terminal),100%
same,remaining activity at 0.1 µM,HPK1; HPK1,78%
same,remaining activity at 0.1 µM,QSK; QSK,88%
same,remaining activity at 0.1 µM,ZAK; ZAK,100%
same,remaining activity at 0.1 µM,MST1R; MST1R,98%
same,remaining activity at 0.1 µM,ITK; ITK,99%
same,remaining activity at 0.1 µM,PIKFYVE; PIKFYVE,57%
same,remaining activity at 0.1 µM,YES; YES,100%
same,remaining activity at 0.1 µM,AKT3; AKT3,100%
same,remaining activity at 0.1 µM,EPHA6; EPHA6,100%
same,remaining activity at 0.1 µM,ALK(L1196M); ALK(L1196M),100%
same,remaining activity at 0.1 µM,PLK3; PLK3,97%
same,remaining activity at 0.1 µM,MKNK2; MKNK2,82%
same,remaining activity at 0.1 µM,PAK2; PAK2,97%
same,remaining activity at 0.1 µM,CDK8; CDK8,10%
same,remaining activity at 0.1 µM,RET(M918T); RET(M918T),100%
same,remaining activity at 0.1 µM,EIF2AK1; EIF2AK1,100%
same,remaining activity at 0.1 µM,"[2]; EGFR(L747-E749del, A750P)",100%
same,remaining activity at 0.1 µM,CSNK1G1; CSNK1G1,100%
same,remaining activity at 0.1 µM,ALK(C1156Y); ALK(C1156Y),100%
"CN(C[C@H](Cc1ccccc1)OP(=O)(O)O)C(=O)c1cncc(C#Cc2cnn(C(F)F)c2)c1 [Example 19, (S)-1-(5-((1-(difluoromethyl)-1H-pyrazol-4-yl)ethynyl)-N-methylnicotinamido)-3-phenylpropan-2-yl dihydrogen phosphate]",remaining activity at 0.1 µM,SLK,97%
same,remaining activity at 0.1 µM,NEK9,100%
same,remaining activity at 0.1 µM,CIT,95%
same,remaining activity at 0.1 µM,PRKCH,91%
same,remaining activity at 0.1 µM,NIM1,89%
same,remaining activity at 0.1 µM,WNK3,100%
same,remaining activity at 0.1 µM,PDPK1,100%
same,remaining activity at 0.1 µM,MAPKAPK5,96%
same,remaining activity at 0.1 µM,WNK2,100%
same,remaining activity at 0.1 µM,[1],100%
same,remaining activity at 0.1 µM,HPK1,92%
same,remaining activity at 0.1 µM,QSK,85%
same,remaining activity at 0.1 µM,ZAK,100%
same,remaining activity at 0.1 µM,MST1R,92%
same,remaining activity at 0.1 µM,ITK,100%
same,remaining activity at 0.1 µM,PIKFYVE,57%
same,remaining activity at 0.1 µM,YES,100%
same,remaining activity at 0.1 µM,AKT3,100%
same,remaining activity at 0.1 µM,EPHA6,100%
same,remaining activity at 0.1 µM,ALK(L1196M),100%
same,remaining activity at 0.1 µM,PLK3,92%
same,remaining activity at 0.1 µM,MKNK2,79%
same,remaining activity at 0.1 µM,PAK2,92%
same,remaining activity at 0.1 µM,CDK8,98%
same,remaining activity at 0.1 µM,RET(M918T),100%
same,remaining activity at 0.1 µM,EIF2AK1,96%
same,remaining activity at 0.1 µM,[2],84%
same,remaining activity at 0.1 µM,CSNK1G1,100%
same,remaining activity at 0.1 µM,ALK(C1156Y),100%
